Patent US9023635B2, “Bacterial methods” (Imperial Innovations Limited, priority 2010, dated 2015)

Assays:
[1] = tested on: PrkC-SAV expressing spores with biotinylated azide and alkyne; conditions: all click reaction components present; FIG. 26
Procedure: For all PrkC-SAV spore reactions, 100 nM of biotinylated ‘sensor’ was added to 100 μl reactions of spores at a concentration of OD600 ˜1. […] All reactions were carried out at room temperature. Controls for PrkC-SAV spore experiments omitted each reagent/parameter tested and the affect on germination was assessed. After addition of germinant, terbium was added to a final concentration of 5 μM and fluorescence visualized on a UV transilluminator (Biorad), at periodic time points. A DPA standard was imaged using known concentrations and correlated to fluorescent pixels.
PrkC-SAV expressing spores were incubated in the presence of biotinylated azide and alkyne groups with copper (FIG. 25). DPA release, i.e. germination, was measured by fluorescence in the presence of terbium as described in previous Examples.

[2] = tested on: bacterial spore with prkC intracellular and transmembrane domain and the extracellular EPOR domain; test: Germination of bacterial spores expressing chimeric prkC-EPOR receptor; assay type: cell-based, Bacillus subtilis
[3] = tested on: bacterial spores in the absence of the chimeric protein; test: Germination of bacterial spores in the absence of the prkC-EPOR chimeric protein; assay type: cell-based, Bacillus subtilis
[4] = tested on: prkC-SAV spores with complementary biotinylated oligos; test: Germination of prkC-SAV spores with structure-switching anti-thrombin aptamers; assay type: cell-based; conditions: FIG. 30
From the text: Hall et al (2009) describe a method for protein detection using structure switching aptamers. The well-known example of thrombin as a target, described in the Introduction by Hall et al, was utilised to assess the use of bacterial spores as an alternative readout to release of a quencher from a fluorophore, as illustrated in FIGS. 29-30.

[5] = tested on: prkC-SAV spores with biotinylated aptamers; test: Germination of prkC-SAV spores with biotinylated anti-PDGF aptamers; assay type: cell-based; conditions: FIG. 28
From the text: Presence of the target protein results in binding of the protein by the aptamers, dimerisation of the prkC proteins, and germination of the spores, which can be detected, for example, using methods described in previous Examples.

O=S(=O)([O-])[O-].[Cu+2] [copper, copper (II) sulfate]
germination (DPA release) versus controls omitting azide/alkyne or copper [1]: significant increase in germination

erythropoietin [EPO]
germination efficiency with increased concentration ([2]; FIG. 13, increased concentration of EPO): increase in germination efficiency
germination of spores ([2]; spores expressing prkC-EPOR chimera): stimulation of germination
germination of spores [3]: does not stimulate the germination

thrombin
target protein concentration of optimal detection [4]: 100 nm

B1: PDGF-BB: platelet derived growth factor, in the BB homodimer form (protein, UniProt P01127 82-190, looked up)
Platelet-derived growth …: SLGSLTIAEPAMIAECKTRTEVFEISRRLIDRTNANFLVWPPCVEVQRCSGCCNNRNVQCRPTQVQLRPVQVRKIEIVRKKPIFKKATVTLEDHLACKCETVAAARPVT
modifications: BB homodimer
notes: platelet derived growth factor, in the BB homodimer form
target protein concentration of optimal detection [5]: 0.1 nM
